Results reported in US11235029B2, “Methods for treating heart failure with a TRKB agonist” (Temple University-Of The Commonwealth System of Higher …, priority 2017, dated 2022).

Legend:
[1] = system: mice with myocardial infarction; assay: chronic infusion of TrkB agonist in mice with myocardial infarction (echocardiography, fibrosis, heart rate); format: in vivo
Experimental: FIG. 7, comprising FIG. 7A through FIG. 7C, depicts experimental results. FIG. 7A depicts rescue of cardiac defects following MI resulting from chronic infusion of LM22A-4, a specific agonist of TrkB (Massa S M, et a. J Clin Invest. 2010; 120:1774-85) at 0.2 mg/kg/day in saline, started 1 week after MI. […] FIG. 7B depicts cardiac tissue sections and quantitation of fibrosis observed in sham, MI, and MI+LM22A-4 groups. Compared to the MI group without treatment, fibrosis was lower in TrkB agonist-treated hearts.
FIG. 7A depicts rescue of cardiac defects following FIG. 7A depicts rescue of cardiac defects following MI resulting from chronic infusion of LM22A-4, a specific agonist of TrkB (Massa S M, et al. J Clin Invest. 2010; 120:1774-85), at 0.2 mg/kg/day in saline, started 1 week after MI.
Overall fibrosis was lower in TrkB agonist-treated hearts (FIG. 7B). FIG. 7B depicts cardiac tissue sections and quantitation of fibrosis observed in sham, MI, and MI+LM22A-4 groups. Compared to the MI group without treatment, fibrosis was lower in TrkB agonist-treated hearts.

BDNF = BDNF immunoblot of lysates from isolated control myocytes; format: cell-based
eNOS = assay: immunoblot of eNOS phosphorylated at serine 1177 in myocytes; format: cell-based; conditions: acute infusion, 100 nM
Text: FIG. 8 depicts an immunoblot of eNOS phosphorylated at serine 1177 (^ser1177p-eNOS) and total eNOS (t-eNOS), taken from myocytes under control conditions (NS) and treated with LM22A-4.
Another possible mechanism of protection granted by TrkB stimulation is eNOS stimulation. […] Thus, it is plausible that TrkB agonists enhance eNOS signaling. FIG. 8 depicts an immunoblot of eNOS phosphorylated at serine 1177 (^ser1177p-eNOS) and total eNOS (t-eNOS), taken from myocytes under control conditions (NS) and treated with LM22A-4.

[2] = 0.2 mg/kg/day in saline, chronic infusion started 1 week after MI, 4 weeks after severe MI

O=C(NCCO)c1cc(C(=O)NCCO)cc(C(=O)NCCO)c1 [LM22A-4, N,N′,N″-tris(2-hydroxyethyl)-1,3,5-benzenetricarboxamide]
LVDs [1, 2]: 6.1±0.25 mm | ejection fraction (% EF) [1, 2]: 23.3±2.1% | fibrosis compared to the MI group without treatment ([1]; cardiac tissue sections, MI+LM22A-4 group): lower | heart rate ([1]; chronic infusion, MI mice): 494±17.8 bpm | myocardial BDNF (immunoblot) (BDNF): induced myocardial BDNF | eNOS activation by phosphorylation at serine 1177 (eNOS): activates eNOS
